Assay results taken from US20250255867A1 (Kadmon Corporation, LLC, priority 2022, published 2025).

## CC(C)NC(=O)COc1cccc(-c2nc(Nc3ccc4[nH]ncc4c3)c3ccccc3n2)c1 [Belumosudil, 2-{3-[4-(1H-indazol-5-ylamino)-2-quinazolinyl]phenoxy}-N-(propan-2-yl) acetamide]
Cohort 1
  Patients with relative dose intensity >95%: 77%
Cohort 1 200 mg QD
  Abdominal distension: # Events: 1
  Abdominal distension: Affected/At Risk: 1/17
  Abdominal distension: Affected/At Risk (%): (5.88%)
  Abdominal pain upper: # Events: 1
  Abdominal pain upper: Affected/At Risk: 1/17
  Abdominal pain upper: Affected/At Risk (%): (5.88%)
  Abdominal pain: # Events: 2
  Abdominal pain: Affected/At Risk: 2/17
  Abdominal pain: Affected/At Risk (%): (11.76%)
  Actinic keratosis: # Events: 0
  Actinic keratosis: Affected/At Risk: 0/17
  Actinic keratosis: Affected/At Risk (%): (0%)
  Acute kidney injury: # Events: 4
  Acute kidney injury: Affected/At Risk: 1/17
  Acute kidney injury: Affected/At Risk (%): (5.88%)
  Acute respiratory distress syndrome: # Events: 1
  Acute respiratory distress syndrome: Affected/At Risk: 1/17
  Acute respiratory distress syndrome: Affected/At Risk (%): (5.88%)
  Adrenal insufficiency: # Events: 2
  Adrenal insufficiency: Affected/At Risk: 1/17
  Adrenal insufficiency: Affected/At Risk (%): (5.88%)
  Alanine aminotransferase increased: # Events: 12
  Alanine aminotransferase increased: Affected/At Risk: 6/17
  Alanine aminotransferase increased: Affected/At Risk (%): (35.29%)
  Anaemia: # Events: 14
  Anaemia: Affected/At Risk: 5/17
  Anaemia: Affected/At Risk (%): (29.41%)
  Anal incontinence: # Events: 2
  Anal incontinence: Affected/At Risk: 1/17
  Anal incontinence: Affected/At Risk (%): (5.88%)
  Anxiety: # Events: 1
  Anxiety: Affected/At Risk: 1/17
  Anxiety: Affected/At Risk (%): (5.88%)
  Arthralgia: # Events: 1
  Arthralgia: Affected/At Risk: 1/17
  Arthralgia: Affected/At Risk (%): (5.88%)
  Aspartate aminotransferase increased: # Events: 8
  Aspartate aminotransferase increased: Affected/At Risk: 5/17
  Aspartate aminotransferase increased: Affected/At Risk (%): (29.41%)
  Asthenia: # Events: 0
  Asthenia: Affected/At Risk: 0/17
  Asthenia: Affected/At Risk (%): (0%)
  Atelectasis: # Events: 1
  Atelectasis: Affected/At Risk: 1/17
  Atelectasis: Affected/At Risk (%): (5.88%)
  Back pain: # Events: 0
  Back pain: Affected/At Risk: 0/17
  Back pain: Affected/At Risk (%): (0%)
  Balance disorder: # Events: 0
  Balance disorder: Affected/At Risk: 0/17
  Balance disorder: Affected/At Risk (%): (0%)
  Basal cell carcinoma: # Events: 0
  Basal cell carcinoma: Affected/At Risk: 0/17
  Basal cell carcinoma: Affected/At Risk (%): (0%)
  Benign prostatic hyperplasia: # Events: 1
  Benign prostatic hyperplasia: Affected/At Risk: 1/17
  Benign prostatic hyperplasia: Affected/At Risk (%): (5.88%)
  Blepharitis: # Events: 1
  Blepharitis: Affected/At Risk: 1/17
  Blepharitis: Affected/At Risk (%): (5.88%)
  Blister: # Events: 0
  Blister: Affected/At Risk: 0/17
  Blister: Affected/At Risk (%): (0%)
  Blood alkaline phosphatase increased: # Events: 6
  Blood alkaline phosphatase increased: Affected/At Risk: 4/17
  Blood alkaline phosphatase increased: Affected/At Risk (%): (23.53%)
  Blood chloride decreased: # Events: 0
  Blood chloride decreased: Affected/At Risk: 0/17
  Blood chloride decreased: Affected/At Risk (%): (0%)
  Blood cholesterol increased: # Events: 2
  Blood cholesterol increased: Affected/At Risk: 1/17
  Blood cholesterol increased: Affected/At Risk (%): (5.88%)
  Blood creatine increased: # Events: 0
  Blood creatine increased: Affected/At Risk: 0/17
  Blood creatine increased: Affected/At Risk (%): (0%)
  Blood creatine phosphokinase increased: # Events: 1
  Blood creatine phosphokinase increased: Affected/At Risk: 1/17
  Blood creatine phosphokinase increased: Affected/At Risk (%): (5.88%)
  Blood creatinine increased: # Events: 1
  Blood creatinine increased: Affected/At Risk: 1/17
  Blood creatinine increased: Affected/At Risk (%): (5.88%)
  Blood loss anaemia: # Events: 1
  Blood loss anaemia: Affected/At Risk: 1/17
  Blood loss anaemia: Affected/At Risk (%): (5.88%)
  Bronchial secretion retention: # Events: 0
  Bronchial secretion retention: Affected/At Risk: 0/17
  Bronchial secretion retention: Affected/At Risk (%): (0%)
  Bronchitis: # Events: 1
  Bronchitis: Affected/At Risk: 1/17
  Bronchitis: Affected/At Risk (%): (5.88%)
  Bronchoscopy: # Events: 1
  Bronchoscopy: Affected/At Risk: 1/17
  Bronchoscopy: Affected/At Risk (%): (5.88%)
  Catheter site haemorrhage: # Events: 1
  Catheter site haemorrhage: Affected/At Risk: 1/17
  Catheter site haemorrhage: Affected/At Risk (%): (5.88%)
  Chills: # Events: 1
  Chills: Affected/At Risk: 1/17
  Chills: Affected/At Risk (%): (5.88%)
  Chronic kidney disease: # Events: 1
  Chronic kidney disease: Affected/At Risk: 1/17
  Chronic kidney disease: Affected/At Risk (%): (5.88%)
  Conjunctival haemorrhage: # Events: 0
  Conjunctival haemorrhage: Affected/At Risk: 0/17
  Conjunctival haemorrhage: Affected/At Risk (%): (0%)
  Conjunctivitis: # Events: 0
  Conjunctivitis: Affected/At Risk: 0/17
  Conjunctivitis: Affected/At Risk (%): (0%)
  Constipation: # Events: 1
  Constipation: Affected/At Risk: 1/17
  Constipation: Affected/At Risk (%): (5.88%)
  Contrast media allergy: # Events: 0
  Contrast media allergy: Affected/At Risk: 0/17
  Contrast media allergy: Affected/At Risk (%): (0%)
  Contusion: # Events: 2
  Contusion: Affected/At Risk: 2/17
  Contusion: Affected/At Risk (%): (11.76%)
  Corneal abrasion: # Events: 1
  Corneal abrasion: Affected/At Risk: 1/17
  Corneal abrasion: Affected/At Risk (%): (5.88%)
  Corneal infection: # Events: 0
  Corneal infection: Affected/At Risk: 0/17
  Corneal infection: Affected/At Risk (%): (0%)
  Cough: # Events: 1
  Cough: Affected/At Risk: 1/17
  Cough: Affected/At Risk (%): (5.88%)
  Decreased appetite: # Events: 4
  Decreased appetite: Affected/At Risk: 2/17
  Decreased appetite: Affected/At Risk (%): (11.76%)
  Dehydration: # Events: 2
  Dehydration: Affected/At Risk: 2/17
  Dehydration: Affected/At Risk (%): (11.76%)
  Depression: # Events: 0
  Depression: Affected/At Risk: 0/17
  Depression: Affected/At Risk (%): (0%)
  Diarrhoea: # Events: 9
